Legend:
vanilloid TRPV1 receptor [1] = target: T1, vanilloid TRPV1 receptor (Rattus norvegicus, UniProt O35433); test: Ca2+ fluorescence measurements in cultured rat trigeminal ganglia neurons: inhibition of capsaicin-induced calcium mobilisation; type: cell-based; details: capsaicin 0.1 μM; for IC50: 10 minutes pre-incubation, mean and 95% fiducial limits, read-out: IC50 inhibiting capsaicin-evoked [Ca2+]i mobilization; for concentration giving complete inhibition of the response to capsaicin / threshold concentration that produced an inhibitory effect: compounds incubated 10 minutes prior to capsaicin challenge
T1 construct: rat trigeminal neuronal cells, that therefore were identified as TRPV1 expressing neurons; endogenous in cells; host or cells: primary trigeminal ganglion neurons from 2-day-old Sprague-Dawley rats
T1 sequence (O35433 whole entry): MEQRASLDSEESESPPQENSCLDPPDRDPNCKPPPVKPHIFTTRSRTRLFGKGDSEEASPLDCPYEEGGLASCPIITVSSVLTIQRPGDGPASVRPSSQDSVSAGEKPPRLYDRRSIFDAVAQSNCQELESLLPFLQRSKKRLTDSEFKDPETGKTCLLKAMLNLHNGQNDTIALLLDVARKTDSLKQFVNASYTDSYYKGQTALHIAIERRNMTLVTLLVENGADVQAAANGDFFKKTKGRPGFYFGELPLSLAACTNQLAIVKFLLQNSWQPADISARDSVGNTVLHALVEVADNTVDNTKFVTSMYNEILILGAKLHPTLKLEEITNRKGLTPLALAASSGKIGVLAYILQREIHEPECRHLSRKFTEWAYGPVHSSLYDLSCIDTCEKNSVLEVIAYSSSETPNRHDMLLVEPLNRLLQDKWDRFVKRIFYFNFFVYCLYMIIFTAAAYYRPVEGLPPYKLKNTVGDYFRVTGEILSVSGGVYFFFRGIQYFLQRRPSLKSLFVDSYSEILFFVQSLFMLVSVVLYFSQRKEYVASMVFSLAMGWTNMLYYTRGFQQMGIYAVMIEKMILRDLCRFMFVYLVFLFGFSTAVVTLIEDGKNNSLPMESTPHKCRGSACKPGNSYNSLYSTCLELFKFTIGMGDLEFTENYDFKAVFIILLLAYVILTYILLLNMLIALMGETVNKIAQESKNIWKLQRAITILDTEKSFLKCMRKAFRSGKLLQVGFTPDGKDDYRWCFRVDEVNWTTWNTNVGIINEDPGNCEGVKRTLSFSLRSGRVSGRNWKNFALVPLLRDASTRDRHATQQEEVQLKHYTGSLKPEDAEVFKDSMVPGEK
Method: Ca^2+ Fluorescence Measurements in Cultured Rat Trigeminal Ganglia
Newborn rats (2 days old) were terminally anaesthetized and decapitated. Trigeminal ganglia were removed and rapidly placed in a cold phosphate buffered solution (PBS) before being transferred to collagenase/dispase (1 mg/ml dissolved in Ca^2+-Mg^2+-free PBS) for 35 min. at 37° C.^4.
After the enzymatic treatment the ganglia were rinsed three times with Ca^2+-Mg^2+-free PBS and then placed in 2 ml of cold DMEM supplemented with 10% foetal bovine serum (FBS, heat inactivated), 2 mM L-glutamine, 100 μ/ml penicillin and […] streptomycin. The ganglia were then dissociated into single cells by several passages through a series of syringe needles (23 G down to 25 G). Finally, the medium and ganglia cells sieved through a […] filter to remove debris and taken up with 8 ml of DMEM medium and centrifuged (200×g for 5 min.). The final cell pellet was re-suspended in DMEM medium (supplemented with 100 ng/ml mouse Nerve Growth Factor (mouse-NGF-7S) and cytosine-β-D-arabino-furanoside free base (ARA-C) […]). The cells were plated on poly-L-lysine (8.3 mM) and laminin (5 mM) coated 25 mm glass cover slips and kept for 2 to 5 days at 37° C. in a humidified incubator gassed with 5% CO2 and air. Plated neurons were loaded with Fura-2-AM-ester (3 μM) in Ca^2+ buffer solution of the following composition (mM): CaCl2 1.4, KCl 5.4, MgSO4 0.4, NaCl 135, D-glucose 5, HEPES 10 with BSA 0.1%, at pH 7.4, for 40 min at 37° C., washed twice with the Ca^2+ buffer solution and transferred to a chamber on the stage of a Nikon eclipse TE300 microscope. The dye was excited at 340 and 380 nm to indicate relative [Ca^2+]i changes by the F340/F380 ratio recorded with a dynamic image analysis system (Laboratory Automation 2.0, RCS, Florence, Italy). Capsaicin (0.1 μM) and ionomycin (5 μM) were added to the chamber. A calibration curve using a buffer containing Fura-2-AM-ester and determinant concentrations of free Ca^2+ was used to convert the obtained data from F340/F380 ratio to [Ca^2+]i (nM)^5.
The effects of Ia, Ib and Ic were tested against capsaicin-induced calcium mobilisation; Ia, Ib and Ic were incubated for 10 minutes prior to the capsaicin challenge. The inhibitory effect of the reference TRPV1 antagonist, capsazepine, was also tested.

[2] = test system: rat trigeminal neuronal cells; test: Ca2+ fluorescence measurements in cultured rat trigeminal ganglia neurons: KCl-evoked [Ca2+]i mobilization; type: cell-based; details: 5 mM KCl
vanilloid TRPV1 receptor [3] = target: T1, vanilloid TRPV1 receptor; test: Wiping test in rats (capsaicin-induced wiping movements); type: in vivo; details: intraperitoneal; for effect on capsaicin-induced wiping in rats: 15 minutes prior to capsaicin challenge; for ED50 capsaicin-induced wiping: 15 minutes prior to capsaicin challenge (capsaicin 0.1%, 50 μl on conjunctiva), mean and 95% fiducial limits
Method: Newborn and adult Sprague-Dawley rats (˜250 g) were used (Harlam, Italy). All experiments complied with the national guidelines and were approved by the regional ethics committee.
The irritant effect (induction of wiping movements) of capsaicin was assessed by applying capsaicin 0.1% (50 μl) on the rat conjunctiva and the number of wiping movements was recorded during the 60 s period that followed the application. In another set of experiments, the rats were treated intraperitoneally with different doses of Ia and Ic and capsaicin-induced wiping was studied.

Compound | IC50 (vanilloid TRPV1 receptor [1]) | concentration giving complete inhibition of the response to capsaicin (vanilloid TRPV1 receptor [1]) | threshold concentration that produced an inhibitory effect (vanilloid TRPV1 receptor [1]) | Mobilization of [Ca2+]i evoked by KCl [2] | effect on capsaicin-induced wiping in rats (vanilloid TRPV1 receptor [3]) | ED50 capsaicin-induced wiping (vanilloid TRPV1 receptor [3])
COc1cc(CNC(=S)NCc2ccc(C(F)(F)F)cc2)c(I)cc1O [Ic, 1-(4-trifluoromethyl)-3-(2-iodo-4-hydroxy-5-methoxybenzyl) thiourea] | 70 nM | 3 µM | 1 nM | not affected | significantly reduced | 7.20 (6.34-7.89) mg/kg
Oc1cc2c(cc1O)CN(C(=S)NCCc1ccc(Cl)cc1)CCC2 [capsazepine, reference compound] | 2340 nM |  |  |  |  | 
COc1cc(CNC(=S)NCc2ccc(C(C)(C)C)cc2)c(Cl)cc1O [Ib, 1-(4-tert-butyl)-3-(2-chloro-4-hydroxy-5-methoxybenzyl) thiourea] | 3.86 nM |  | 0.1 nM | not affected |  | 
COc1cc(CNC(=S)NCc2ccc(C(C)(C)C)cc2)c(I)cc1O [Ia, 1-(4-tert-butyl)-3-(2-iodo-4-hydroxy-5-methoxybenzyl) thiourea] | 3.48 nM | 0.1 µM | 0.1 nM | not affected | significantly reduced | 2.76 (2.05-3.35) mg/kg
